Measurements published in US20060160869A1, “Ubiquitin ligase inhibitors” (Rigel Pharmaceuticals, Inc., priority 2005, published 2006).

Experiments:
[1] = target: MDM2 (Homo sapiens, UniProt Q00987); experiment: MDM2 gel-based E3 ligase assay; format: biochemical; settings: compound at 20 μM; result in words
Description: E3 (His-APC11/APC2—“APC”) auto-ubiquitination was measured as described in U.S. patent application Ser. No. 09/826,312 (Publication No. US-2002-0042083-A1), which is incorporated herein in its entirety. Details of the protocol are described below. Activity in the presence of compound was determined relative to a parallel control in which only DMSO is added. The IC50 values were typically determined using 6 or 8 different concentrations of compound, although as few as 2 concentrations may be used to approximate the IC50 values.
Corning 96-well plates (Corning 3650) were blocked with 100 μl of Blocking Buffer for 1 hour at room temperature. The plates were washed 4 times with 225 μl of 1×PBS and 80 μl of the reaction buffer were added that contained 100 ng/well of Flag-ubiquitin. To this, 10 μl of the test compound diluted in DMSO were added. After the test compound was added, 10 μl of E1 (human), E2 (Ubch5c) and APC in Protein Buffer were added to obtain a final concentration of 5 ng/well of E1, 20 ng/well of E2 and 100 ng/well APC. The plates were shaken for 10 minutes and incubated at room temperature for 1 hour. After incubation, the reaction was stopped by adding 25 μl of loading buffer (non-reducing) per well and the plates were heated at 95° C. for 5 minutes. An aliquot of each well was run on a 10% NugePage Gel and analyzed by Western Blot using the antibody mix and Lumino substrate described below. The luminescence was measured by using a BMG luminescence microplate reader.
hMDM2 Plate/Gel is Mouse double minute 2, human homolog. This protein belongs to the E3 RING finger ligase group.

[2] = test system: p53 reporter system in p53 wild-type A549 cell line; experiment: p53-dependent transcription reporter assay, A549RE; format: cell-based; settings: p53 +ve cell type; maximal fold induction over DMSO control
Description: Stable lines of U2OS (osteosarcoma; Wild-type p53 positive), HCT116 (colorectal carcinoma; Wild-type p53 positive) and H1299 (lung non-small cell carcinoma; p53 null) carrying p53-dependent transcriptional regulatory element linked to a Luciferase reporter gene and H1299 carrying a 5′-regulatory region of GADD45 linked to Luciferase were used.
Day 2: The compounds or control drugs were diluted in dimethyl sulfoxide (DMSO) and added to the wells to create 6-points/2-fold serial dilution (20, 10, 5, 2.5, 1.25, 0.625 and 0 μM) for each compound. The DMSO concentration was adjusted to 0.2% in all wells.
Day 3: Twenty to 24 hours after compound addition, cells were twice washed with PBS and lysed with Glo-lysis buffer (100 μl/well, Promega; Cat#E2661). Plates were subjected to gentle agitation on a table-top shaker for 5 minutes at room temperature. Fifty μl of lysate was transferred to an assay plate to test for luciferase activity and mixed with 2× assay buffer (Promega; Cat# E1483). The reaction mixture was left at room temperature for 2 minutes and then luminescence was measure by a luminometer (Victor™, 1420 Multilabel Counter, Wallac).
Data analysis was done on Excel software (Microsoft). Values in Table 4 represent maximal fold induction over negative control (DMSO only) and are the mean of at least duplicate experiments.
A549RE is a p53 wild-type A549 cell line containing p53 reporter system. If the compound acts against MDM2, p53 activity increases.

[3] = test system: U2OS cells; experiment: PAD anti-proliferation assay, U2OS; format: cell-based; settings: Homo sapiens, 48 hours, read-out: PAD/U20S IC50
Description: A549 (ATCC# CCL 185), HeLa (ATCC# CCL 2), HCT116 (ATCC# CCL-247), and H 1299 (ATCC# CRL-5803) cells were maintained in T175 flasks following the ATCC recommended media and handling procedures. Flasks reaching approximately 70% confluency were trypsinized and resuspended in RPMI media (Cell Gro catalog number 10 040 CM) modified to contain 5% FBS, 100 ug/mlPen/Strep (Cell Gro catalog number 30 002 CL), and 0.3 mg/ml L Glutamine (Cell Gro catalog number 25 003 CL). A 20,000 cells/ml solution was made for plating. Cells were plated in black Packard 96 well plates by placing 100 μl per well (2,000 cells per well).
Compounds and additional media were added 24′ hours after cell plating. A compound master plate was created with concentrations 500 times greater than the final concentration added to the cells. All compound testing was done in duplicate using 3 fold dilutions starting with 10 mM. All outside wells (and 4 internal wells) were DMSO controls. Taxol and at least one additional control were run on all plates. Three microliters of the compound master plate were added to deep well blocks containing 750 μl of RPMI media. One hundred microliters were transferred from the compound/media deep well blocks to the plated cells resulting in a 500 fold dilution of the compounds. Cells were grown at 37° C., 5% CO2 for 48 hours.
Cells to be analyzed by photography were fixed and stained. One hundred microliters of media were removed and 100 μl of 2% paraformaldehyde was added to each well. Plates were left on the benchtop for 45 minutes. A staining solution containing 1.55 μl of 1 mg/ml DAPI added to 18.75 ml PBS was warmed for 15 minutes at 37° C. The cells were aspirated prior to washing with 100 μl of PBS. Seventy microliters of PBS were aspirated and 170 μl of the DAPI solution were added to each well of fixed cells. Plates were left at room temperature for one hour then aspirated and washed twice with 100 μl of PBS. The stained cells were left at 4° C. for a minimum of 16 hours before photographic analysis with Array Scan II (Cellomics). Analysis of the photographic images to determine numbers of live cells (proliferation), apoptotic cells and dead cells, were according to the methods described in U.S. Provisional Patent Application Ser. No. 60/406,714, which incorporated herein in its entirety.
Some cell plates were treated with Promega Cell titer Aqueous 1 kit (Promega—VWR catalog number G3580). In this case, 48 hours after the test compound were added, 100 μl of media were removed and 20 μl of cell titer reagent were added to all wells. Plates were incubated at 37° C. for 45 minutes prior to absorbance reads on the Wallac plate reader at 490 nm for 0.1 sec/well. Similar experiments can be carried out using cell lines U2OS and DLD-1.

MDM2, sequence (Q00987 whole entry): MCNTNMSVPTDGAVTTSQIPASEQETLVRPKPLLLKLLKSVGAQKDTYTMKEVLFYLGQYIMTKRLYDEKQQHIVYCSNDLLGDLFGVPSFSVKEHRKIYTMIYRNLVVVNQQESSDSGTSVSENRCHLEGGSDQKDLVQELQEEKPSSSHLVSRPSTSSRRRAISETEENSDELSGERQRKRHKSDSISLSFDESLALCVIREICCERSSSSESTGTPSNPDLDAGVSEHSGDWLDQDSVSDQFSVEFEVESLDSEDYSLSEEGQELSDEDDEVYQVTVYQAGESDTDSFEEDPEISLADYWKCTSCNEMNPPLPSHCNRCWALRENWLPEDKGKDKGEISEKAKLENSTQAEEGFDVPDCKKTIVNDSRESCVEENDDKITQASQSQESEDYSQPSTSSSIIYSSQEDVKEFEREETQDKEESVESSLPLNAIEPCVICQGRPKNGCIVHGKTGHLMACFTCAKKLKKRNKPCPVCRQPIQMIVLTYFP

| Structure (SMILES) | MDM2 Gel 20 μM [1] | Fold Induction of p53 activity, A549RE [2] | IC50 [3] [µM] |
| --- | --- | --- | --- |
| COc1cccc(-c2csc(N(CCOc3ccccc3)Cc3ccc(C(=O)N4CCNCC4)cc3)n2)c1 [compound 352] | Weak | a (a means 2 or less) | 1 to 20 |
| COc1cccc(-c2csc(N(Cc3ccc(C(=O)N4CCNCC4)cc3)Cc3cccc(OC(F)(F)F)c3)n2)c1 [compound 351] | Active | a (a means 2 or less) | 1 to 20 |
| COc1cccc(CN(Cc2ccc(C(=O)N3CCNCC3)cc2)c2nc(-c3ccc(Br)cc3)cs2)c1OC [compound 353] | Active | a (a means 2 or less) | 1 to 20 |
| O=C(c1ccc(CN(Cc2cccc(OC(F)(F)F)c2)c2nc(-c3ccc4ccccc4c3)cs2)cc1)N1CCNCC1 [compound 282, 4-(2-naphthyl)-N-[4-(piperazin-1-ylcarbonyl)benzyl]-N-[3-(trifluoromethoxy)benzyl]-1,3-thiazol-2-amine] | Potent | a (a means 2 or less) | 1 to 20 |
| O=C(c1ccc(CN(Cc2cccc(OC(F)(F)F)c2)c2nc(-c3ccccc3)cs2)cc1)N1CCNCC1 [compound 275] | Weak | a (a means 2 or less) | 1 to 20 |
| O=C(c1ccc(CN(CCOc2ccccc2)c2nc(-c3ccc(Cl)c(Cl)c3)cs2)cc1)N1CCNCC1 [compound 360] | Potent | a (a means 2 or less) | 1 to 20 |
